Measured values as given in article PMC9882606, “Rationally designed inhibitors of the Musashi protein-RNA interaction by hotspot mimicry” (Research Square, 2023).

Tests used:
MSI2 = assay: Immunoblot of cellular MSI2 protein levels in PC9 cells; assay type: cell-based, human; details: PC9, 20 μM compound for 1, 3, 6, 24, or 48 hours
Excerpt: To explore the effect of these MSI2 inhibitors in a cancer-relevant cellular context, we selected two MSI2-dependent cancer cell lines: non-small cell lung cancer cell line PC9 and leukemia cell line K562 [73, 98–101]. Upon treatment of PC9 cells with Ro, R12–8–44–3, or negative control R12-neg, we found at multiple time points that cellular MSI2 protein levels were unchanged (Figure 6a). To confirm target engagement, we therefore adapted the cellular thermal shift assay (CETSA). To determine experimental conditions, we first harvested cells and incubated at increasing temperatures; we then removed aggregated protein by centrifugation and used Western blotting to probe the amount of MSI2 remaining in the soluble fraction (Figure 6b, Figure S9). Having established 49 °C as the midpoint of the transition under these (non-equilibrium) conditions, we then treated cells with our candidate MSI2 inhibitor for 3 h, and heated to 49 °C.
Figure 6: Direct cellular engagement of MSI2 interaction by R12–44–3. (A) Immunoblot from PC9 cells treated with Ro (positive control), R12-neg (negative control), or R12–8–44–3. Cells were treated with 20 μM compound for 1, 3, 6, 24, or 48 hours. MSI2 protein abundance was then quantified and normalized to untreated sample. One representative image is shown; quantification is presented as the average ± S.E.M. from 3 independent replicates. (B) Thermal-induced aggregation of cellular MSI2 in the PC9 cell line. Cells were briefly incubated at temperatures between 40 °C to 67 °C, then centrifuged and the amount of MSI2 remaining in the soluble fraction was quantified by Western blotting. […] One representative image is shown; quantification is presented as the average ± S.E.M. from 3 independent replicates, normalized first to beta-actin and then to DMSO control. […] One representative image is shown; quantification is presented as the average ± S.E.M. from 3 independent replicates, normalized first to beta-actin and then to DMSO control. […]

MSI1 RRM1 = target: T1, MSI1 RRM1 (Homo sapiens, UniProt O43347); assay: Fluorescence polarization (FP) competition assay with fluorescein-labeled RNA; assay type: binding; details: MSI1 RRM1
T1 sequence (O43347 20-110 limits assumed): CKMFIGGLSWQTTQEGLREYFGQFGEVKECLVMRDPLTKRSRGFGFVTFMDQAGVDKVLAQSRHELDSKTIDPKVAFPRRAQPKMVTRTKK
Excerpt: Figure 1: The hotspot mimicry approach. […] (A) The structure of the MSI1 / RNA complex. The RNA (sticks) wraps around the protein (spheres). Two adjacent bases, A106 and G107 (magenta), are buried in a shallow pocket on the protein surface. (B) An interaction map is generated from the RNA in the complex, by collecting deeply buried bases (magenta) and atoms involved in intermolecular hydrogen bonds (acceptors shown in yellow, donors in green). […] Positive values indicate diminished binding when a given base is replaced with an abasic site, showing that A106 and G107 contribute more than the other nearby bases to the binding affinity of this interaction. (E) The hotspot pharmacophore serves as a template for ligand-based screening, searching for compounds that would mimic the three-dimensional features of the pharmacophore. The screen led to the identification of compound R12, which mimics the geometry of the rings and provides three of the four desired hydrogen bonding groups. (F) R12 competes with fluorescein-labeled RNA for MSI1 binding, as observed through a fluorescence polarization assay. […] (G) Superposition of the hotspot pharmacophore back onto the protein structure illustrates the interactions that should be captured by an ideal ligand: stacking against three aromatic sidechains, and four intermolecular hydrogen bonds.
We applied our “hotspot mimicry” approach to the structure of Musashi-1 RRM1 bound to cognate RNA [54], and found a single hotspot pharmacophore derived from an adjacent pair of buried bases, Adenine106 and Guanine107 (Figure 1a). […] This pharmacophore captures both the aromatic stacking and the hydrogen bonding of the RNA hotspot through its inclusion of ring moieties and donor/acceptor positions, respectively (Figure 1c). To test whether these two particular bases indeed serve as a hotspot of the MSI1 RRM1 / RNA interaction, we used a fluorescence polarization (FP) competition assay (see Supporting Methods) to measure the binding affinity of RNA variants that maintained the backbone but lacked individual bases. […] In contrast, introduction of an abasic site at other nearby positions affected binding much less. Confirmation that A106 and G107 serve as hotspot bases of this interaction thus provided experimental evidence supporting the pharmacophore selection from our computational approach.

improvement in potency over parent compound (MSI1 RRM1; FP assay): 2 fold
IC50 (MSI1 RRM1; FP competition): 9.7 µM
SMILES: Cc1cc(C(=O)OCc2nc(N)c3c(C)c(C)sc3n2)c(N)cc1F [R12–8–44–3]
cellular MSI2 protein levels (MSI2): unchanged
